Here are results for six compounds from BindingDB's records for doi:10.1074/jbc.M607913200 (Incyte, 2006).

For the first test, the target named is T1, Tyrosine-protein phosphatase non-receptor type 1 [1-298] (Homo sapiens, UniProt P18031).
T1 construct: 1-298
T1 sequence (P18031 whole entry): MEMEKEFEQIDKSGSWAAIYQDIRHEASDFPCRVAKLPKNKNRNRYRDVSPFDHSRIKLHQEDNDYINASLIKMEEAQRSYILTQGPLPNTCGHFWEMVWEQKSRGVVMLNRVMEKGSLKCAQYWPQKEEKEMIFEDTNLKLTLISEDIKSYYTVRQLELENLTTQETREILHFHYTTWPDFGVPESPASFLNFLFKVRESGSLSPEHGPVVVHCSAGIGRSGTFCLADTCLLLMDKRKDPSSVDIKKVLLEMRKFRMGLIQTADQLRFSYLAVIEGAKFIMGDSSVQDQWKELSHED
Nature of the test: Phosphatase Inhibition Assay.
Details: not given
`Cc1ccc(S(=O)(=O)N[C@@H](Cc2ccc(C3CC(=O)NS3(=O)=O)cc2)c2nc3ccccc3[nH]2)cc1` (stereo partly drawn) [N-[(1S)-1-(1H-1,3-benzodiazol-2-yl)-2-[4-(1,1,3-trioxo-1,2-thiazolidin-5-yl)phenyl]ethyl]-4-methylbenzene-1-sulfonamide] registered an IC50 of 0.08 µM.

In turn, `CC(=O)N[C@@H](Cc1ccc(C2CC(=O)NS2(=O)=O)cc1)c1nc2ccccc2[nH]1` (stereo partly drawn) [N-[(1S)-1-(1H-1,3-benzodiazol-2-yl)-2-[4-(1,1,3-trioxo-1,2-thiazolidin-5-yl)phenyl]ethyl]acetamide] returned a half-maximal inhibitory concentration (IC50) of 2.6 µM.

In turn, `O=C1CC(c2ccc(C[C@H](NS(=O)(=O)c3ccccc3)c3nc4ccccc4[nH]3)cc2)S(=O)(=O)N1` (stereo partly drawn) [N-[(1S)-1-(1H-1,3-benzodiazol-2-yl)-2-[4-(1,1,3-trioxo-1,2-thiazolidin-5-yl)phenyl]ethyl]benzenesulfonamide] showed a 50% inhibitory concentration (IC50) of 0.12 µM.

The test is the same for the next values; noted with them: pH 7; 22 °C.
`CN1CCOc2cc(S(=O)(=O)N[C@@H](Cc3ccc([C@@H]4CC(=O)NS4(=O)=O)cc3)c3nc4ccccc4[nH]3)ccc21` [N-[(1S)-1-(1H-benzoimidazol-2-yl)-2-[4-[(5S)-1,1,3-trioxo-1,2-thiazolidin-5-yl]phenyl]ethyl]-7-methyl-10-oxa-7-azabicyclo[4.4.0]deca-2,4,11-triene-3-sulfonamide] gave an IC50 of 0.059 µM.

`O=C1C[C@@H](c2ccc(C[C@H](NC(=O)C(F)(F)F)c3nc4ccc(C(F)(F)F)cc4[nH]3)cc2)S(=O)(=O)N1` [N-{(1S)-2-[4-(1,1-dioxido-3-oxoisothiazolidin-5-yl)phenyl]-1-[5-(trifluoromethyl)-1H-benzimidazol-2-yl]ethyl}-2,2,2-trifluoroacetamide] had an IC50 of 0.11 µM.

For `O=C(Cc1ccc(C(F)(F)P(=O)(O)O)cc1)N[C@@H](Cc1ccccc1)C(=O)NCCc1ccc(C(F)(F)P(=O)(O)O)cc1` [[(4-{2-[(2S)-2-(1-{4-[difluoro(phosphono)methyl]phenyl}acetamido)-3-phenylpropanamido]ethyl}phenyl)difluoromethyl]phosphonic acid], the IC50 worked out at 0.046 µM.

In general, IC50 refers to the concentration that gives 50% inhibition. A higher IC50 goes with a need for much substance.
